Reference: PMC5131364, “Pharmacologic modulation of RORγt translates to efficacy in preclinical and translational models of psoriasis and inflammatory arthritis” (Scientific Reports, 2016)

Assays:
Format in all cases: cell-based
[1] = test system: CD4+ T cells under Th1 conditions; assay: Mouse CD4+ T cell in vitro Th1 differentiation; settings: titrated compound, ELISA
Method: Mouse CD4+ T cell in vitro Th1 differentiation
Total CD4+ T cells were isolated from splenocytes of C57/BL6 mice (Chareles River Labrotory) using a CD4+ T cell isolation kit (Miltenyl Biotec, Auburn, CA), following the manufacturer’s instructions. Cells were resuspended in culture medium (described in Method section of Th17 differentiation) and were added to 96‐well plates at 2x10^5 per well. Titrated JNJ‐54271074 was added to each well at final DMSO concentration of 0.2%. Cells were incubated for 1 hour, after which Th1 cell differentiation medium was added with final concentrations of 1 µg/ml anti‐CD3, 5 µg/mL anti‐CD28 (BD Pharmingen, San Diego, CA), 10 µg/ml anti‐IL4, 10 ng/mL IL‐12, (R&D Systems, Minneapolis, MN). Cells were cultured at 37 °C and 5% CO2 for 3 days. Supernatants were collected and the accumulated cytokines in culture were measured by ELISA kits (R&D Systems, Minneapolis, MN) following manufacturers' instructions.
IL‐23 induced IL‐17A and IL‐22 production in mouse splenocytes splenocytes were isolated from C57/BL6 mice and resuspended in medium and cultured in 96‐well plates at […] per 100 µL per well. […] Supernatants were collected and the accumulated cytokines in culture were measured by ELISA according to the manufacturer’s instructions (IL‐17A kit from R&D systems, and IL‐22 from Biolegend San Diego). […]

[2] = test system: iNKT cells from human PBMCs; assay: Human NKT cell in vitro activation; settings: IL-1β/IL-23, 6 days, 1 μM
[3] = test system: human γδ+ T cells in PBMCs; assay: Human γδ+ T cell in vitro activation; settings: 168 h, IL-1β, IL-23 and IPP, 7 days, average, read-out: inhibition of the IL-17A+ γδ+ T cell population
Text: The following antibodies (anti-mouse or anti-human) were purchased from BD Biosciences (San Diego, CA) or eBioscience (San Diego, CA): anti-CD3-FITC (mouse 17A2 and human SK7), anti-CD4-allophycocyanin (APC), anti-CD4-PerCp, anti-CD4-FITC, anti-CD4-PE (mouse GK1.5 and human SK3), anti-CD44-PerCp (mouse IM7), anti-γδ TCR-FITC, anti-γδ TCR-PE (mouse GL3 and human B1), anti-CD62L-FITC (mouse MEL-14 and human SK11), anti-CD45RO-APC (human UCHL1), anti-CCR6-PE (human 11A9), anti-CD45-PerCp (mouse 30-F11). Human or mouse anti-IFNγ (mouse XMG1.2 and human 4S.B3), anti-TNFα (mouse MP6-XT22 and human MAB11), anti-IL-17A (mouse eBio17B7 and human eBio64DEC17), anti-IL-22 (mouse 1H8PWSR and human 22URTI), and anti-Foxp3 (mouse FJK-16s and human 36A/E7), all PE or APC conjugated, were purchased from eBioscience (San Diego, CA). Human and mouse APC conjugated CD1d tetramers pre-loaded with alpha-GalCer and negative controls were obtained from ProImmune. […] Cells were stained with fluorescence-labeled antibodies for surface marker, then fixed/permeabilized (eBioscience) and stained with antibodies for intracellular cytokines. […] The data were acquired on a FACS Calibur (BD Bioscience) and analyzed using FlowJo software (Tree Star, San Carlos, CA).
Human γδ^+ T cells were analyzed only through flow cytometry. […]

SMILES: COc1nc2ccc([C@@](O)(c3ccc(C)nc3C)c3cnnn3C)cc2c(Cl)c1Cc1ccc(C(F)(F)F)cc1 [JNJ-54271074]
- IFNγ production under Th1 conditions [1]: minimal effects
- IL-17A production by iNKT cells from human PBMCs [2]: suppressed
- inhibition at 1 µM [3]: 56%
